Results as given in patent US20020102246A1, “Antimicrobial compositions” (Novozymes A/S, priority 2000, published 2002).
Marks after values point to notes of the source that are not given here.

What follows are compounds tested on Pseudomonas putida (ATCC 12633) (assay: Antimicrobial activity of mediators oxidized by Coprinus cinereus peroxidase (rCiP)). Settings: 50 μM mediator, rCiP 4 POXU/L, 0.5 mM hydrogen peroxide, 20 minutes at 40° C., pH 7; 6 corresponds to a total kill.
Format: cell-based
Description: Antibacterial activity of 4-aminophenol, 4-hydroxy-4′-dimethylamino azobenzene, 4,4′-biphenol, 10-methylphenoxazine and 4,4′-dihydroxydiphenyl ether was evaluated when oxidized by Coprinus cinereus peroxidase (rCiP) (available from Novozymes A/S).
Antimicrobial activity was determined on Pseudomonas putida (ATCC 12633), the cells were grown in Tryptone Soy Broth, TSB (Oxoid CM129) overnight, washed two times in sterile 0.9% saline and suspended in 50 mM HEPES buffer (Sigma H3375) at pH 7 to a cell concentration of approximately 10^6 CFU/ml. The mediators were added to the cell suspension to a final concentration of 50 μM, rCiP was added to the concentration 4 POXU/L and the enzyme reaction was started by addition of hydrogen peroxide to a final concentration of 0.5 mM. Antimicrobial activity was determined after 20 minutes incubation at 40° C., by a 10-fold dilution of the cell suspension into TSB substrate and incubation overnight. Antimicrobial activity was determined as log10 reduction, thus a log10 reduction of 2 corresponds to a kill of 99%.

SMILES | Log10 reduction
Oc1ccc(-c2ccc(O)cc2)cc1 [4,4′-Biphenol, 97%, 4,4′-Biphenol] | 1.5
Oc1ccc(Oc2ccc(O)cc2)cc1 [4,4′-Dihydroxyphenyl ether, 4,4′-Dihydroxydiphenyl ether] | 2.5
CN(C)c1ccc(N=Nc2ccc(O)cc2)cc1 [4-Hydroxy-4′-dimethylamino azobenzene] | 6*
Nc1ccc(O)cc1 [4-aminophenol] | 2.5
CN1c2ccccc2Oc2ccccc21 [10-Methylphenoxazine] | 3
